Experimental data published in patent US20230278983A1, “INDOLE DERIVATIVES AND USES THEREOF FOR TREATING A CANCER” (Universite Claude Bernard Lyon 1, priority 2020, published 2023).
Like-named read-outs stand apart in the source and are kept apart here.

Target: CK2 (Homo sapiens (Human), UniProt P68400)
Test: Radiometric CK2 kinase assay
Type: biochemical
Conditions: for inhibition at 1 µM: compound at 1 μM; for inhibition at 0.1 µM: compound at 0.10 μM
[1] = inhibition of CK2 activity, ATP 10 μM

Sequence of CK2 (P68400 whole entry): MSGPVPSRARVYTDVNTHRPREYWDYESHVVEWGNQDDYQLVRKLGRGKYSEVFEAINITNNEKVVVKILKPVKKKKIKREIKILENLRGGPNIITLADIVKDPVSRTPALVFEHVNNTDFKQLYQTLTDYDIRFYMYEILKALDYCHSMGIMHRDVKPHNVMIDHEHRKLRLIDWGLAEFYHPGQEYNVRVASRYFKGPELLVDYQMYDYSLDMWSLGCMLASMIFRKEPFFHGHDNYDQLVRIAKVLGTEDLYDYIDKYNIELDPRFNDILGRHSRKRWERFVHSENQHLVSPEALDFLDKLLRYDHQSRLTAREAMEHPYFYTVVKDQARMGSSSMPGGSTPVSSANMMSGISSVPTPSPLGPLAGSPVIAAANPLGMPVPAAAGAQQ

Question: With `COCc1ccccc1-c1ccc(CN2CCC(Cn3cc(-c4c(C(=O)OCC(C)C)[nH]c5ccc(F)cc45)nn3)CC2)cc1C(C)C` [AB704] as the compound, how does the inhibition at 1 µM (ATP 10 μM) read?
Answer: 21%

Question: For `CC(C)CC(=O)c1[nH]c2ccc(F)cc2c1-c1cn(CC2CCN(CCNS(=O)(=O)Cc3ccc(C(F)(F)F)cc3)CC2)nn1` [AB1306, N-(2-(4-((4-(5-fluoro-2-(3-methylbutanoyl)-1H-indol-3-yl)-1H-1,2,3-triazol-1-yl)methyl)piperidin-1-yl)ethyl)-1-(4-(trifluoromethyl)phenyl)methanesulfonamide], which IC50 [1] is on record?
Answer: 450 nM

Question: For `CC(C)COC(=O)c1[nH]c2ccc(F)cc2c1-c1cn(CC2CCN(Cc3ccc(-c4cccc5[nH]ccc45)c(Cl)c3)CC2)nn1` [AB690, Isobutyl 3-(1-((1-(3-chloro-4-(1H-indol-4-yl)benzyl)piperidin-4-yl)methyl)-1H-1,2,3-triazol-4-yl)-5-fluoro-1H-indole-2-carboxylate], which inhibition at 1 µM (ATP 10 μM) is on record?
Answer: 31%

Question: How did the inhibition at 1 µM (ATP 10 μM) turn out when `CC(C)COC(=O)c1[nH]c2ccc(F)cc2c1-c1cn(CC2CCN(Cc3ccc(Oc4ccccc4)c(Cl)c3)CC2)nn1` [AB691, Isobutyl 3-(1-((1-(3-chloro-4-phenoxybenzyl)piperidin-4-yl)methyl)-1H-1,2,3-triazol-4-yl)-5-fluoro-1H-indole-2-carboxylate] was run?
Answer: 3%

Question: With `CC(C)COC(=O)c1[nH]c2ccc(F)cc2c1-c1cn(CC2CCN(CCNS(=O)(=O)c3ccc(-c4c(O)cccc4F)cc3)CC2)nn1` [AB1402, isobutyl 5-fluoro-3-(1-((1-(2-((2′-fluoro-6′-hydroxy-[1,1′-biphenyl])-4-sulfonamido)ethyl)piperidin-4-yl)methyl)-1H-1,2,3-triazol-4-yl)-1H-indole-2-carboxylate] as the compound, how does the IC50 [1] read?
Answer: 45 nM

Question: How did the IC50 turn out when `CCCCC(=O)c1[nH]c2ccc(F)cc2c1-c1cn(CC2CCN(CCNS(=O)(=O)c3ccc(CC(C)C)cc3)CC2)nn1` [AB1145, N-(2-(4-((4-(5-fluoro-2-pentanoyl-1H-indol-3-yl)-1H-1,2,3-triazol-1-yl)methyl)piperidin-1-yl)ethyl)-4-isobutylbenzenesulfonamide] was run?
Answer: 130 nM

Question: How did the IC50 turn out when `O=S(=O)(NCCN1CCC(Cn2cc(-c3c[nH]c4ccc(F)cc34)nn2)CC1)c1ccc(Cl)cc1` [AB153, 4-Chloro-N-(2-(4-((4-(5-fluoro-1H-indol-3-yl)-1H-1,2,3-triazol-1-yl)methyl)piperidin-1-yl)ethyl)benzenesulfonamide] was run?
Answer: 15100 nM

Question: How did the IC50 [1] turn out when `CC(C)COC(=O)c1[nH]c2ccc(F)cc2c1-c1cn(CC2CCN(CCNS(=O)(=O)c3ccc(-c4ccccc4CN4CCOCC4)cc3)CC2)nn1` [AB1075] was run?
Answer: 79 nM

Question: Which inhibition at 0.1 µM (ATP 10 μM) does the source give for `CC(=O)c1[nH]c2ccc(F)cc2c1-c1cn(CC2CCN(CCNS(=O)(=O)c3ccc(-c4c(C)cccc4C#N)cc3)CC2)nn1` [AB1452, N-(2-(4-((4-(2-acetyl-5-fluoro-1H-indol-3-yl)-1H-1,2,3-triazol-1-yl)methyl)piperidin-1-yl)ethyl)-2′-cyano-6′-methyl-[1,1′-biphenyl]-4-sulfonamide] here?
Answer: 36%

Question: For `CC(=O)c1[nH]c2ccc(F)cc2c1-c1cn(CC2CCN(CCNS(=O)(=O)N3CCC(c4cccnc4F)CC3)CC2)nn1` [AB1322, N-(2-(4-((4-(2-acetyl-5-fluoro-1H-indol-3-yl)-1H-1,2,3-triazol-1-yl)methyl)piperidin-1-yl)ethyl)-4-(2-fluoropyridin-3-yl)piperidine-1-sulfonamide], which inhibition at 0.1 µM (ATP 10 μM) is on record?
Answer: 10%

Question: With `CC(C)COC(=O)c1[nH]c2ccc(F)cc2c1-c1cn(CC2CCN(CCNS(=O)(=O)c3ccc4c(c3)OCCCO4)CC2)nn1` [AB1072, isobutyl 3-(1-((1-(2-((3,4-dihydro-2H-benzo[b][1,4]dioxepine)-7-sulfonamido)ethyl)piperidin-4-yl)methyl)-1H-1,2,3-triazol-4-yl)-5-fluoro-1H-indole-2-carboxylate] as the compound, how does the IC50 read?
Answer: 100 nM

Question: How did the IC50 turn out when `CC(C)COC(=O)c1[nH]c2ccc(F)cc2c1-c1cn(CC2CCN(CCNS(=O)(=O)c3ccc(-c4cccnc4N4CCCC4)cc3)CC2)nn1` [AB1073, isobutyl 5-fluoro-3-(1-((1-(2-((4-(2-(pyrrolidin-1-yl)pyridin-3-yl)phenyl)sulfonamido)ethyl)piperidin-4-yl)methyl)-1H-1,2,3-triazol-4-yl)-1H-indole-2-carboxylate] was run?
Answer: 18 nM

Question: `CC(C)COC(=O)c1[nH]c2ccc(F)cc2c1-c1cn(CC2CCN(S(=O)(=O)c3ccc(C(C)(C)C)cc3)CC2)nn1` [AB938] was tested. Which inhibition at 1 µM (ATP 10 μM) did it give?
Answer: 5%

Question: With `CCOC(=O)c1[nH]c2ccc(Cl)cc2c1-c1cn(CC2CCN(CCNS(=O)(=O)c3ccc(Cl)cc3)CC2)nn1` [AB460, Ethyl 5-chloro-3-(1-((1-(2-((4-chlorophenyl)sulfonamido)ethyl)piperidin-4-yl)methyl)-1H-1,2,3-triazol-4-yl)-1H-indole-2-carboxylate] as the compound, how does the IC50 read?
Answer: 2510 nM

Question: For `O=C(c1[nH]c2ccc(F)cc2c1-c1cn(CC2CCN(CCNS(=O)(=O)c3ccc(-c4cccnc4Cl)cc3)CC2)nn1)C1CC1` [AB1232, 4-(2-chloropyridin-3-yl)-N-(2-(4-((4-(2-(cyclopropanecarbonyl)-5-fluoro-1H-indol-3-yl)-1H-1,2,3-triazol-1-yl)methyl)piperidin-1-yl)ethyl)benzenesulfonamide], which inhibition at 0.05 µM (compound at 0.05 μM, ATP 10 μM) is on record?
Answer: 16%

Question: For `CC(C)CCOc1ccc(CN2CCC(Cn3cc(-c4c(C(=O)OCC(C)C)[nH]c5ccc(F)cc45)nn3)CC2)cc1Cl` [AB746, Isobutyl 3-(1-((1-(3-chloro-4-(isopentyloxy)benzyl)piperidin-4-yl)methyl)-1H-1,2,3-triazol-4-yl)-5-fluoro-1H-indole-2-carboxylate], which inhibition at 1 µM (ATP 10 μM) is on record?
Answer: 15%

Question: `CC(=O)c1cccc(-c2ccc(CN3CCC(Cn4cc(-c5c(C(=O)OCC(C)C)[nH]c6ccc(F)cc56)nn4)CC3)cc2Cl)c1` [AB739, Isobutyl 3-(1-((1-((3′-acetyl-2-chloro-[1,1′-biphenyl]-4-yl)methyl)piperidin-4-yl)methyl)-1H-1,2,3-triazol-4-yl)-5-fluoro-1H-indole-2-carboxylate] was tested. Which inhibition at 1 µM (ATP 10 μM) did it give?
Answer: 7%

Question: `CC(C)COC(=O)c1[nH]c2ccc(F)cc2c1-c1cn(CC2CCN(CCNS(=O)(=O)Cc3ccc(Br)cc3)CC2)nn1` [AB1030, isobutyl 3-(1-((1-(2-(((4-bromophenyl)methyl)sulfonamido)ethyl)piperidin-4-yl)methyl)-1H-1,2,3-triazol-4-yl)-5-fluoro-1H-indole-2-carboxylate] was tested. Which IC50 [1] did it give?
Answer: 54 nM

Question: With `CC(=O)c1[nH]c2ccc(F)cc2c1-c1cn(CC2CN(CCNS(=O)(=O)c3ccc(CC(C)C)cc3)C2)nn1` [AB1404, N-(2-(3-((4-(2-acetyl-5-fluoro-1H-indol-3-yl)-1H-1,2,3-triazol-1-yl)methyl)azetidin-1-yl)ethyl)-4-isobutylbenzenesulfonamide] as the compound, how does the inhibition at 0.1 µM (ATP 10 μM) read?
Answer: 20%

Question: For `CCc1ccc(S(=O)(=O)NCCN2CCC(Cn3cc(-c4c(C(=O)OCC(C)C)[nH]c5ccc(F)cc45)nn3)CC2)cc1` [AB556, Isobutyl 3-(1-((1-(2-((4-ethylphenyl)sulfonamido)ethyl)piperidin-4-yl)methyl)-1H-1,2,3-triazol-4-yl)-5-fluoro-1H-indole-2-carboxylate], which IC50 is on record?
Answer: 170 nM

Question: How did the inhibition at 1 µM (ATP 10 μM) turn out when `CC(C)CCOC(=O)c1[nH]c2ccc(F)cc2c1-c1cn(CC2CCN(CCNS(=O)(=O)c3ccc(C(C)C)cc3)CC2)nn1` [AB664, Isopentyl 5-fluoro-3-(1-((1-(2-((4-isopropylphenyl)sulfonamido)ethyl)piperidin-4-yl)methyl)-1H-1,2,3-triazol-4-yl)-1H-indole-2-carboxylate] was run?
Answer: 15%

Question: `CC(=O)c1[nH]c2ccc(F)cc2c1-c1cn(C[C@H]2CCN(CCNS(=O)(=O)c3ccc(CC(C)C)cc3)C2)nn1` [AB1318] was tested. Which IC50 did it give?
Answer: 300 nM

Question: With `CC(C)COC(=O)c1[nH]c2ccc(F)cc2c1-c1cn(CC2CCN(CCNS(=O)(=O)Cc3ccc(Cl)cc3)CC2)nn1` [AB936, isobutyl 3-(1-((1-(2-(((4-chlorophenyl)methyl)sulfonamido)ethyl)piperidin-4-yl)methyl)-1H-1,2,3-triazol-4-yl)-5-fluoro-1H-indole-2-carboxylate] as the compound, how does the IC50 [1] read?
Answer: 550 nM

Question: `CC(=O)c1[nH]c2ccc(F)cc2c1-c1cn(CC2CCN(CCNS(=O)(=O)c3ccc(-c4ccccc4F)cc3)CC2)nn1` [AB1390, N-(2-(4-((4-(2-acetyl-5-fluoro-1H-indol-3-yl)-1H-1,2,3-triazol-1-yl)methyl)piperidin-1-yl)ethyl)-2′-fluoro-[1,1′-biphenyl]-4-sulfonamide] was tested. Which inhibition at 0.1 µM (ATP 10 μM) did it give?
Answer: 36%

Question: How did the IC50 turn out when `CCOC(=O)c1[nH]c2ccc(Cl)cc2c1-c1cn(CC2CCN(CCNS(=O)(=O)c3ccc(C)cc3)CC2)nn1` [AB505, Ethyl 5-chloro-3-(1-((1-(2-((4-methylphenyl)sulfonamido)ethyl)piperidin-4-yl)methyl)-1H-1,2,3-triazol-4-yl)-1H-indole-2-carboxylate] was run?
Answer: 3760 nM

Question: For `CC(C)CNC(=O)c1[nH]c2ccc(F)cc2c1-c1cn(CC2CCN(CCNS(=O)(=O)c3ccc(C(C)C)cc3)CC2)nn1` [AB652, 5-Fluoro-N-isobutyl-3-(1-((1-(2-((4-isopropylphenyl)sulfonamido)ethyl)piperidin-4-yl)methyl)-1H-1,2,3-triazol-4-yl)-1H-indole-2-carboxamide], which inhibition at 1 µM (ATP 10 μM) is on record?
Answer: 4%

Question: Which IC50 does the source give for `CC(C)COC(=O)c1[nH]c2ccc(F)cc2c1-c1cn(CC2CCN(CCNS(=O)(=O)c3ccc(-c4ccccc4N(C)C)cc3)CC2)nn1` [AB1209, isobutyl 3-(1-((1-(2-((2′-(dimethylamino)-[1,1′-biphenyl])-4-sulfonamido)ethyl)piperidin-4-yl)methyl)-1H-1,2,3-triazol-4-yl)-5-fluoro-1H-indole-2-carboxylate] here?
Answer: 70 nM

Question: Which IC50 does the source give for `CC(C)COC(=O)c1[nH]c2ccc(F)cc2c1-c1cn(CC2CCN(CCNS(=O)(=O)c3ccc4ccccc4c3)CC2)nn1` [AB598, Isobutyl 5-fluoro-3-(1-((1-(2-(naphthalene-2-sulfonamido)ethyl)piperidin-4-yl)methyl)-1H-1,2,3-triazol-4-yl)-1H-indole-2-carboxylate] here?
Answer: 510 nM

Question: How did the inhibition at 0.1 µM (ATP 10 μM) turn out when `CC(C)C(=O)c1[nH]c2ccc(F)cc2c1-c1cn(CC2CCN(CCNS(=O)(=O)c3ccc(-c4cccnc4Cl)cc3)CC2)nn1` [AB1282, 4-(2-chloropyridin-3-yl)-N-(2-(4-((4-(5-fluoro-2-isobutyryl-1H-indol-3-yl)-1H-1,2,3-triazol-1-yl)methyl)piperidin-1-yl)ethyl)benzenesulfonamide] was run?
Answer: 15%
